# Data from PubChem BioAssay AID1259407 (Chemical Carcinogenesis Research Information System (CCRIS), 2018).
# Activity calls are given as the source filed them. How the calls were made is not given here.
# System: CCRIS mutagenicity, Ames/micronucleus/aberration tests
# Experiment: CCRIS mutagenicity studies
# [1] = Test System: AMES SALMONELLA TYPHIMURIUM, Strain/Indicator: TA98, Metabolic Activation: NONE, Method: PREINCUBATION
# [2] = Test System: AMES SALMONELLA TYPHIMURIUM, Strain/Indicator: TA100, Metabolic Activation: NONE, Method: PREINCUBATION
compound,measurement,setting,value
CCNC(=O)Nc1ccc(OCC(O)CNC(C)(C)C)c(C(C)=O)c1 (stereo unspecified),mutagenic call,[1],inactive; negative
same,mutagenic call,"Test System: AMES SALMONELLA TYPHIMURIUM, Strain/Indicator: TA98, Metabolic Activation: RAT, LIVER, S-9, AROCLOR 1254 (10 OR 50 µL/PLATE), Method: PREINCUBATION",inactive; negative
same,mutagenic call,[2],inactive; negative
same,mutagenic call,"Test System: AMES SALMONELLA TYPHIMURIUM, Strain/Indicator: TA100, Metabolic Activation: RAT, LIVER, S-9, AROCLOR 1254 (10 OR 50 µL/PLATE), Method: PREINCUBATION",inactive; negative
same,mutagenic call,"Test System: AMES SALMONELLA TYPHIMURIUM, Strain/Indicator: TA1535, Metabolic Activation: NONE, Method: PREINCUBATION",inactive; negative
same,mutagenic call,"Test System: AMES SALMONELLA TYPHIMURIUM, Strain/Indicator: TA1535, Metabolic Activation: RAT, LIVER, S-9, AROCLOR 1254 (10 OR 50 µL/PLATE), Method: PREINCUBATION",inactive; negative
same,mutagenic call,"Test System: AMES SALMONELLA TYPHIMURIUM, Strain/Indicator: TA1537, Metabolic Activation: NONE, Method: PREINCUBATION",inactive; negative
same,mutagenic call,"Test System: AMES SALMONELLA TYPHIMURIUM, Strain/Indicator: TA1537, Metabolic Activation: RAT, LIVER, S-9, AROCLOR 1254 (10 OR 50 µL/PLATE), Method: PREINCUBATION",inactive; negative
same,mutagenic call,"Test System: E. COLI, Strain/Indicator: WP2 UVRA, Metabolic Activation: NONE, Method: PREINCUBATION",inactive; negative
same,mutagenic call,"Test System: E. COLI, Strain/Indicator: WP2 UVRA, Metabolic Activation: RAT, LIVER, S-9, AROCLOR 1254 (10 OR 50 µL/PLATE), Method: PREINCUBATION",inactive; negative
O=C([O-])c1cccnc1Nc1cccc(C(F)(F)F)c1.O=C([O-])c1cccnc1Nc1cccc(C(F)(F)F)c1.[Cu+2],mutagenic call,"Test System: AMES SALMONELLA TYPHIMURIUM, Strain/Indicator: TA97, Metabolic Activation: MOUSE, LIVER, S-9, Method: STANDARD PLATE",inactive; negative
same,mutagenic call,"Test System: AMES SALMONELLA TYPHIMURIUM, Strain/Indicator: TA97, Metabolic Activation: NONE, Method: STANDARD PLATE",inactive; negative
same,mutagenic call,"Test System: AMES SALMONELLA TYPHIMURIUM, Strain/Indicator: TA97, Metabolic Activation: RAT LIVER S-9, DELOR 103, Method: STANDARD PLATE",inactive; negative
same,mutagenic call,"Test System: AMES SALMONELLA TYPHIMURIUM, Strain/Indicator: TA98, Metabolic Activation: MOUSE, LIVER, S-9, Method: STANDARD PLATE",inactive; negative
same,mutagenic call,"Test System: AMES SALMONELLA TYPHIMURIUM, Strain/Indicator: TA98, Metabolic Activation: NONE, Method: STANDARD PLATE",inactive; negative
same,mutagenic call,"Test System: AMES SALMONELLA TYPHIMURIUM, Strain/Indicator: TA98, Metabolic Activation: RAT LIVER S-9, DELOR 103, Method: STANDARD PLATE",inactive; negative
same,mutagenic call,"Test System: AMES SALMONELLA TYPHIMURIUM, Strain/Indicator: TA100, Metabolic Activation: MOUSE, LIVER, S-9, Method: STANDARD PLATE",inactive; negative
same,mutagenic call,"Test System: AMES SALMONELLA TYPHIMURIUM, Strain/Indicator: TA100, Metabolic Activation: NONE, Method: STANDARD PLATE",inactive; negative
same,mutagenic call,"Test System: AMES SALMONELLA TYPHIMURIUM, Strain/Indicator: TA100, Metabolic Activation: RAT LIVER S-9, DELOR 103, Method: STANDARD PLATE",inactive; negative
same,mutagenic call,"Test System: AMES SALMONELLA TYPHIMURIUM, Strain/Indicator: TA102, Metabolic Activation: MOUSE, LIVER, S-9, Method: STANDARD PLATE",inactive; negative
same,mutagenic call,"Test System: AMES SALMONELLA TYPHIMURIUM, Strain/Indicator: TA102, Metabolic Activation: NONE, Method: STANDARD PLATE",inactive; negative
same,mutagenic call,"Test System: AMES SALMONELLA TYPHIMURIUM, Strain/Indicator: TA102, Metabolic Activation: RAT LIVER S-9, DELOR 103, Method: STANDARD PLATE",inactive; negative
Nc1ncnc2c1ncn2-c1cccc([N+](=O)[O-])c1,mutagenic call,"Test System: AMES SALMONELLA TYPHIMURIUM, Strain/Indicator: TA98(1,8-DNP), Metabolic Activation: NONE, Method: PREINCUBATION",active; positive
same,mutagenic call,"Test System: AMES SALMONELLA TYPHIMURIUM, Strain/Indicator: TA98(1,8-DNP), Metabolic Activation: RAT, LIVER, S-9, PCB, Method: PREINCUBATION",active; positive
same,mutagenic call,"Test System: AMES SALMONELLA TYPHIMURIUM, Strain/Indicator: TA98(NR), Metabolic Activation: NONE, Method: PREINCUBATION",inactive; negative
same,mutagenic call,"Test System: AMES SALMONELLA TYPHIMURIUM, Strain/Indicator: TA98(NR), Metabolic Activation: RAT, LIVER, S-9, PCB, Method: PREINCUBATION",inactive; negative
same,mutagenic call,[1],active; positive
same,mutagenic call,"Test System: AMES SALMONELLA TYPHIMURIUM, Strain/Indicator: TA98, Metabolic Activation: RAT, LIVER, S-9, PCB, Method: PREINCUBATION",active; positive
same,mutagenic call,"Test System: AMES SALMONELLA TYPHIMURIUM, Strain/Indicator: TA100(1,8-DNP), Metabolic Activation: NONE, Method: PREINCUBATION",active; positive
same,mutagenic call,"Test System: AMES SALMONELLA TYPHIMURIUM, Strain/Indicator: TA100(1,8-DNP), Metabolic Activation: RAT, LIVER, S-9, PCB, Method: PREINCUBATION",active; positive
same,mutagenic call,"Test System: AMES SALMONELLA TYPHIMURIUM, Strain/Indicator: TA100(NR), Metabolic Activation: NONE, Method: PREINCUBATION",inactive; negative
same,mutagenic call,"Test System: AMES SALMONELLA TYPHIMURIUM, Strain/Indicator: TA100(NR), Metabolic Activation: RAT, LIVER, S-9, PCB, Method: PREINCUBATION",inactive; negative
same,mutagenic call,[2],active; positive
same,mutagenic call,"Test System: AMES SALMONELLA TYPHIMURIUM, Strain/Indicator: TA100, Metabolic Activation: RAT, LIVER, S-9, PCB, Method: PREINCUBATION",active; positive
same,mutagenic call,"Test System: AMES SALMONELLA TYPHIMURIUM, Strain/Indicator: YG1020, Metabolic Activation: NONE, Method: PREINCUBATION",active; positive
same,mutagenic call,"Test System: AMES SALMONELLA TYPHIMURIUM, Strain/Indicator: YG1020, Metabolic Activation: RAT, LIVER, S-9, PCB, Method: PREINCUBATION",active; positive
same,mutagenic call,"Test System: AMES SALMONELLA TYPHIMURIUM, Strain/Indicator: YG1021, Metabolic Activation: NONE, Method: PREINCUBATION",active; positive
same,mutagenic call,"Test System: AMES SALMONELLA TYPHIMURIUM, Strain/Indicator: YG1021, Metabolic Activation: RAT, LIVER, S-9, PCB, Method: PREINCUBATION",active; positive
same,mutagenic call,"Test System: AMES SALMONELLA TYPHIMURIUM, Strain/Indicator: YG1024, Metabolic Activation: NONE, Method: PREINCUBATION",active; positive
same,mutagenic call,"Test System: AMES SALMONELLA TYPHIMURIUM, Strain/Indicator: YG1024, Metabolic Activation: RAT, LIVER, S-9, PCB, Method: PREINCUBATION",active; positive
same,mutagenic call,"Test System: AMES SALMONELLA TYPHIMURIUM, Strain/Indicator: YG1025, Metabolic Activation: NONE, Method: PREINCUBATION",active; positive
same,mutagenic call,"Test System: AMES SALMONELLA TYPHIMURIUM, Strain/Indicator: YG1025, Metabolic Activation: RAT, LIVER, S-9, PCB, Method: PREINCUBATION",active; positive
same,mutagenic call,"Test System: AMES SALMONELLA TYPHIMURIUM, Strain/Indicator: YG1026, Metabolic Activation: NONE, Method: PREINCUBATION",active; positive
same,mutagenic call,"Test System: AMES SALMONELLA TYPHIMURIUM, Strain/Indicator: YG1026, Metabolic Activation: RAT, LIVER, S-9, PCB, Method: PREINCUBATION",active; positive
same,mutagenic call,"Test System: AMES SALMONELLA TYPHIMURIUM, Strain/Indicator: YG1029, Metabolic Activation: NONE, Method: PREINCUBATION",active; positive
same,mutagenic call,"Test System: AMES SALMONELLA TYPHIMURIUM, Strain/Indicator: YG1029, Metabolic Activation: RAT, LIVER, S-9, PCB, Method: PREINCUBATION",active; positive
